Reference: publication PMC5607094 (Biochemical pharmacology, 2017)

Key:
[1] = biological target: T1, FPR1 (Homo sapiens, UniProt P21462); assay: fMLF-induced Ca2+ flux in human neutrophils; assay type: cell-based
T1 sequence (P21462 1-350): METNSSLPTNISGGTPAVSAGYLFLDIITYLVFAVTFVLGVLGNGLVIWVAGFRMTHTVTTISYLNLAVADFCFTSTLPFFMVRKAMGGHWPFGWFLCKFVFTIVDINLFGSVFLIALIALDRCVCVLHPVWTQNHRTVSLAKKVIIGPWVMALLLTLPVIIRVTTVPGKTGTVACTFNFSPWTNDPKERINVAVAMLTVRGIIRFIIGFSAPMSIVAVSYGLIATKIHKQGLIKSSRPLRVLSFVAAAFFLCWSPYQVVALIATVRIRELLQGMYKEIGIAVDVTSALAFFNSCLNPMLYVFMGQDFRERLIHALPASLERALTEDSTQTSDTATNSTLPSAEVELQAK

[2] = test system: human neutrophils; assay: fMLF-induced neutrophil chemotaxis; assay type: cell-based; settings: read-out: Chemotaxis PMN (+ fMLF) IC50
[3] = biological target: T1, FPR1; assay: fMLF-induced Ca2+ mobilization in FPR1-HL60 cells; assay type: cell-based; settings: for Activity class: Active / N.A. = no activity at highest concentration tested in Ca2+ flux assay (50 µM); for FPR1 antagonist activity: fMLF-induced Ca2+ mobilization in FPR1-HL60 cells
[4] = test system: human neutrophils; assay: fMLF-induced neutrophil adhesion to T84 epithelial cells; assay type: cell-based; settings: read-out: Adhesion PMN (+ fMLF) IC50
[5] = biological target: T2, FPR2 (Homo sapiens, UniProt P25090); assay: Ca2+ mobilization in FPR2-HL60 cells
T2 sequence (P25090 1-351): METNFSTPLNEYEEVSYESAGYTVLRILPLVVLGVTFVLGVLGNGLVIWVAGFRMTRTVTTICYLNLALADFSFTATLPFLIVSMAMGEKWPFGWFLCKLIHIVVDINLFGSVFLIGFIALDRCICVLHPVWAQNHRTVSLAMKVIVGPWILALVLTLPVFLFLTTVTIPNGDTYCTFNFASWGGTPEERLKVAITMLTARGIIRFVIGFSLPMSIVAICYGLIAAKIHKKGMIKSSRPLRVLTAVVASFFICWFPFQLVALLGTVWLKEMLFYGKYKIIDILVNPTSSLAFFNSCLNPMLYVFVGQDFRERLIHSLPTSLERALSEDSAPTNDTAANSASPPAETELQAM

[6] = test system: ERK1/2; assay: ERK1/2 phosphorylation in DMSO-differentiated neutrophil-like HL60 cells; assay type: cell-based, human; settings: for Inhibition of fMLF-induced ERK phosphorylation: cell type not stated in the sentence (Discussion); for Inhibition of fMLF-induced phosphorylation of ERK1/2: DMSO-differentiated HL60 cells, 10 min pretreatment, 20 nM fMLF 5 min
[7] = biological target: T2, FPR2; assay: WKYMVM-induced Ca2+ flux in human neutrophils
[8] = test system: ERK1/2; assay: ERK1/2 phosphorylation in FPR1-RBL cells; assay type: cell-based, rat; settings: FPR1-RBL cells (Figure 5B; text prints FPR1-HL60), 20 nM fMLF
[9] = test system: ERK1/2; assay: ERK1/2 phosphorylation in human neutrophils; assay type: cell-based; settings: 10 min pretreatment, 10 nM fMLF

IC50 [1] | IC50 [2] | Activity class [3] | IC50 [4] | IC50 [5] | IC50 [7] | FPR1 antagonist activity [3] | SMILES | Inhibition of fMLF-induced ERK phosphorylation [6] | Inhibition of fMLF-induced ERK1/2 phosphorylation [8] | Inhibition of fMLF-induced phosphorylation of ERK1/2 [6] | Inhibition of fMLF-induced phosphorylation of ERK1/2 [9]
12.4 ± 3.2 µM | 36.3 ± 4 µM |  |  |  |  |  | COc1ccccc1C1C(C(=O)c2ccc(C)cc2)=C(O)C(=O)N1CC(C)O (centres unmarked) [Compound 6, 3-hydroxy-1-(2-hydroxypropyl)-5-(2-methoxyphenyl)-4-(4-methylbenzoyl)-2,5-dihydro-1H-pyrrol-2-one] |  |  |  | 
10.7 ± 2.5 µM | 6.3 ± 2.2 µM | Active | 2.9 ± 1.1 µM |  |  |  | CCCN1C(=O)C(O)=C(C(=O)c2ccccc2)C1c1cc(OC)ccc1OC (centres unmarked) [Compound 4, 4-benzoyl-5-(2,5-dimethoxyphenyl)-3-hydroxy-1-propyl-2,5-dihydro-1H-pyrrol-2-one] |  |  |  | 
3.8 ± 1.8 µM | 12.8 ± 4.8 µM | Active |  | 6.5 ± 0.9 µM | 1.7 ± 0.1 µM | highly active FPR1 antagonists | CCCCCCN1C(=O)C(O)=C(C(=O)c2ccc(C)cc2)C1c1ccc(OC)cc1OC (centres unmarked) [Compound 15, 5-(2,4-dimethoxyphenyl)-1-hexyl-3-hydroxy-4-(4-methylbenzoyl)-2,5-dihydro-1H-pyrrol-2-one] | inhibited |  |  | 
5.2 ± 1.4 µM | 12.4 ± 4.2 µM | Active | 13.3 ± 2.7 µM |  |  | highly active FPR1 antagonists | COCCN1C(=O)C(O)=C(C(=O)c2ccc(C)cc2)C1c1cc(OC)ccc1OC (centres unmarked) [Compound 18, 5-(2,5-dimethoxyphenyl)-3-hydroxy-1-(2-methoxyethyl)-4-(4-methylbenzoyl)-2,5-dihydro-1H-pyrrol-2-one] |  |  |  | 
4.8 ± 0.5 µM | 4.2 ± 1.3 µM | Active | 1.6 ± 0.6 µM |  |  |  | CCCCCCN1C(=O)C(O)=C(C(=O)c2ccccc2)C1c1ccc(O)c(OC)c1 (centres unmarked) [Compound 14, 4-benzoyl-1-hexyl-3-hydroxy-5-(4-hydroxy-3-methoxyphenyl)-2,5-dihydro-1H-pyrrol-2-one] | inhibited | inhibited | effectively inhibited | effectively inhibited
6.7 ± 0.2 µM | 2.2 ± 1.2 µM | Active | 1.1 ± 0.2 µM |  |  |  | COCCN1C(=O)C(O)=C(C(=O)c2ccccc2)C1c1cc(OC)ccc1OC (centres unmarked) [Compound 17, 4-benzoyl-5-(2,5-dimethoxyphenyl)-3-hydroxy-1-(2-methoxyethyl)-2,5-dihydro-1H-pyrrol-2-one] | inhibited | inhibited | effectively inhibited | effectively inhibited
26.7 ± 4.6 µM | 21.3 ± 7.6 µM | Active | 25.8 ± 3.2 µM |  |  |  | CCCCN1C(=O)C(O)=C(C(=O)c2ccc(OC)cc2)C1c1ccc(C)cc1 (centres unmarked) [Compound 5, 1-butyl-3-hydroxy-4-(4-methoxybenzoyl)-5-(4-methylphenyl)-2,5-dihydro-1H-pyrrol-2-one] |  |  |  | 
